The values that follow come from patent US7169966B2, “Salicylic acid-binding protein encoding nucleic acid, SABP2, and methods of use thereof” (Boyce Thompson Institute for Plant Research, Inc., priority 2001, dated 2007).

In one experiment the target is T1, AtSB2L1 (Arabidopsis thaliana, UniProt Q8S8S9).
T1 construct: made in house
T1 sequence (Q8S8S9 1-263): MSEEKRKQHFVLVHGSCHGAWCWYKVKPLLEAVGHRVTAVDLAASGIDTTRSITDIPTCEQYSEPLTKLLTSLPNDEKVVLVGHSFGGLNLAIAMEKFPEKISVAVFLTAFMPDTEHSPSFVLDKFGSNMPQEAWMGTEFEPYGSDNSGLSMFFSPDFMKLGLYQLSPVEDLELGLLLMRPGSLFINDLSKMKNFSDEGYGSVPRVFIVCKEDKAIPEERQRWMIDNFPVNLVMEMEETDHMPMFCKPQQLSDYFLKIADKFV
Put plainly: [3H] salicylic acid-binding assay with unlabeled competitors, Arabidopsis homolog produced in E. coli. Particulars: 1 mM unlabeled competitor; protein produced in E. coli; no competitor = 70 dpm. The procedure:
(§1) [^3H] Salicylic acid-binding assay: The protein extracts/fractions were mixed with 0.1 μM [^3H]-SA (23.6 Ci/mmol) (custom synthesized by NEN Life Science Products) in Buffer A to bring the total volume of the reaction mixture to 150 μl. The extracts were then incubated on ice for 60 minutes. Spin columns were prepared by packing Sephadex G-25 fine (Pharmacia) equilibrated with Buffer A into 1 ml disposable syringe barrels. The G-25 was packed to 1 ml and equilibrated by centrifuging at 1000 g for 4 minutes in a H-1000B rotor (Sorvall) at 4° C. The entire binding mixture was loaded onto the column and centrifuged under similar conditions. Bound [^3H]-SA which is present in the flow through, was mixed with 4 ml scintillation cocktail (Ecolite, ICN) and measured in a liquid scintillation counter. Appropriate controls were also assayed.
(§2) To rigorously establish that the 28 KDa protein from plant extract was SABP2, the cloned cDNA was expressed in E. coli as His6-tagged fusion protein and the recombinant protein was purified on a Ni column and tested for SA-binding activity (Table IV).

The target of another experiment is T2, AtSB2L9 (Arabidopsis thaliana, UniProt O23171).
T2 construct: made in house; host or cells: E. coli
T2 sequence (O23171 1-256): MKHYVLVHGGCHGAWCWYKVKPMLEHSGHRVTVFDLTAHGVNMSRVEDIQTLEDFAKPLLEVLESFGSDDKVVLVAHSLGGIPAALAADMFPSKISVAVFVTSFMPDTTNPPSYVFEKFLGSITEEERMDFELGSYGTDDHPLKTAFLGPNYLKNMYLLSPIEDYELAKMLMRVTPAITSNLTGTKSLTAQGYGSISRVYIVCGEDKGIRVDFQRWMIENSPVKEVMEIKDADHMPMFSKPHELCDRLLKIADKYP
Described as above. Particulars: 1 mM unlabeled competitor; protein produced in E. coli; no competitor = 16486 dpm. The procedure:
as §1, §2

The target of the next experiment is T3, AtSB2L5 (Arabidopsis thaliana, UniProt Q9LFT6).
T3 construct: made in house; host or cells: E. coli
T3 sequence (Q9LFT6 1-258): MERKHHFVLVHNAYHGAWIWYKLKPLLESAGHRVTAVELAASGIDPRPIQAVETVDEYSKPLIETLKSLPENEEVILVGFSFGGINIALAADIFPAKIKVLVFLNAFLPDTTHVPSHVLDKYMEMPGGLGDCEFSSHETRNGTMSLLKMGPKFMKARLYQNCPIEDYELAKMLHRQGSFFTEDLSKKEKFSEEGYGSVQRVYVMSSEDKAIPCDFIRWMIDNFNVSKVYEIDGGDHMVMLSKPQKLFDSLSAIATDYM
The description is as above. Particulars: 1 mM unlabeled competitor; protein produced in E. coli; no competitor = 12927 dpm. How it is done: as §1, §2

Experiment [1] concerns the target T4, SABP2 (Nicotiana tabacum, UniProt Q6RYA0).
T4 sequence (Q6RYA0 1-260): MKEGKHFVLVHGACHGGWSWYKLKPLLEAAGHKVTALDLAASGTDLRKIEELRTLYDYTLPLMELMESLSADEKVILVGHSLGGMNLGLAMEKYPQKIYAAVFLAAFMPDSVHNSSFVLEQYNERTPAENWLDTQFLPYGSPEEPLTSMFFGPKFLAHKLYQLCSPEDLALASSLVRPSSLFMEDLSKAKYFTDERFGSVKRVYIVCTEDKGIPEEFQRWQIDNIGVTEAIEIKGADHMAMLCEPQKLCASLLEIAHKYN
Kind of experiment: [3H] salicylic acid-binding assay with unlabeled competitors, recombinant His6-SABP2 produced in E. coli. More on the design: Full-length tobacco SABP2 was PCR amplified; His6 (N); made in house; host or cells: E. coli BL21 (DE3), vector pET28a; species or system tobacco (Nicotiana tabacum). Particulars: for Bound [^3H] SA SABP2: 1 mM unlabeled competitor, protein produced in E. coli, no competitor = 140206 dpm; for inhibition of ^3H-SA binding by unlabeled competitor (in words): large molar excess of unlabeled competitor, recombinant His6-tagged protein; for binding to SABP2 (in words): recombinant, purified SABP2. How it is done: as §1
Expression of Recombinant SABP2 in E. coli. Full-length tobacco SABP2 was PCR amplified to introduce BamH1 enzyme sites at both ends using the primers F2 ([…]) (SEQ ID NO:51) and F3 ([…]) (SEQ ID NO:52). The amplified product was cloned into the BamH1 site of pET28a (Novagen) and sequenced. Recombinant SABP2 (rSABP2) was synthesized as a soluble protein in E. coli strain BL21 (DE3) and affinity purified by Ni-NTA agarose chromatography (Novagen) as described by the manufacturer. rSABP2 was further purified on a Mono Q column as described earlier.
as §2

A further experiment relates to PR genes. Particulars: for induction of PR genes or enhanced disease resistance; cited from earlier work.
The target of experiment [2] is T4, SABP2. More on the design: from tissue; host or cells: tobacco leaves, partially purified extract. Particulars: partially purified plant extracts; more avidly than SA (Du and Klessig, 1997); cited from earlier work.
For the next experiment, the system named is SABP2 expression. Kind of experiment: Induction of SABP2 expression in plants by chemical treatment. The experiment is classed as in vivo, tobacco. Particulars: without TMV infection. An excerpt: Expression studies have been initiated and already indicate that the tobacco SABP2 and one of its putative Arabidopsis ortholog, AtSB2L9, are induced in plants resisting infection by viral [tobacco mosaic virus(TMV) or turnip crinkle virus (TCV)] or bacterial (P. s.) pathogens. These studies can be extended to other plant-pathogen interactions, e.g. P. s. pv tabaci, and P.s. pv tomato with or without AvrPto in tomato or Pto-transformed Nicotiana benthamiana, for SABP2 and P. s. and Peronospora parasitica for AtSB2L5, AtSB2L9, and other putative orthologs in Arabidopsis. […] Therefore, induction of SABP2 and its Arabidopsis ortholog(s) by ethylene can be tested in a similar fashion.

For experiment [3], the target named is T4, SABP2. Kind of experiment: SA / analog binding to SABP2 isolated from tobacco plant extracts. Further details: from tissue; host or cells: tobacco leaves, partially purified extract. The source says:
(§3) SA is a key component in the signal transduction pathway(s) leading to activation of certain defense responses in plants after pathogen attack. Previous studies have identified several proteins, including catalase and ascorbate peroxidase, through which the SA signal might act. A novel nucleic acid molecule encoding the SA-binding protein 2, SABP2, is described herein. SABP2 was identified through the use of a high specific activity ligand, [^3H]-SA (15–30 Ci/mmole). […] For example, SABP2 is much less abundant in leaf tissue than the catalase, and has an apparent native mass (Mr) of between about 20 and 40 kDa, as compared with the native molecular mass of catalase, which is approximately 240 kDa.
(§4) As one example, assays for SA analogues may be based on the ability of analogues to bind SABP2 or to compete with SA for binding to SABP2. […] Since SABP2 is part of the signal transduction pathway leading to disease resistance, it may be possible to enhance induction of disease resistance using analogues of SA which are not readily metabolized by the plants. […] This glucoside is not active for induction of disease resistance.
(§5) [^3H] […] Bound [^3H]-SA which is present in the flow through, was mixed with 4 ml scintillation cocktail (Ecolite, ICN) and measured in a liquid scintillation counter. […]

For the next experiment, the target named is lipase from Mucor meihei (Rhizomucor miehei, UniProt P19515). Put plainly: Lipase activity assay with or without SA, control lipase. The experiment is classed as biochemical. Particulars: data not shown. The procedure:
Since SABP2 contains the catalytic triad and the lipase signature sequence, the recombinant protein was tested for lipase activity. […] Addition of SA to the reaction stimulated lipase activity 3–6 fold (FIG. 6B). This stimulation required SA binding to SABP2, since it was abolished in reaction conditions that prevented SA binding. […] The lipase activity assay was performed as described by Yang et al. with modifications to allow SA binding to SABP2. The standard 1 ml assay mixture consisted of 1 mM substrate in 50 mM Bicine pH 8.0, 0.05% Triton-X100. Following a 60 min preincubation on ice in absence or presence of 1 mM SA, the reaction was allowed to proceed at 24° C. for 60 min. A 100 mM stock solution of p-NPM or p-NPP was prepared in acetonitrile. Lipase activity was estimated colorimetrically (Unicom UV1, Spectronic Unicom, UK) by measuring the liberation of para-nitrophenol from p-NPP or p-NPM at 410 nm. Measurements from control reactions without SABP2 were subtracted from each reaction. For non SA-binding conditions, Tris-HCl pH 8.0 (50 mM) was used in placed of Bicine buffer.

Experiment [4] has as its target T4, SABP2. Put plainly: Lipase activity assay of purified recombinant SABP2 (pNP palmitate / pNP myristate) with or without SA. More on the design: Full-length tobacco SABP2 was PCR amplified; His6 (N); made in house; host or cells: E. coli BL21 (DE3), vector pET28a. Type of experiment: biochemical, tobacco.
For experiment [5], the system named is SABP2. Kind of experiment: SA / analog binding to SABP2 isolated from tobacco plant extracts. Particulars: fold higher.
From the text: as §3, §4, §5

Sequence of lipase from Mucor meihei (P19515 95-363): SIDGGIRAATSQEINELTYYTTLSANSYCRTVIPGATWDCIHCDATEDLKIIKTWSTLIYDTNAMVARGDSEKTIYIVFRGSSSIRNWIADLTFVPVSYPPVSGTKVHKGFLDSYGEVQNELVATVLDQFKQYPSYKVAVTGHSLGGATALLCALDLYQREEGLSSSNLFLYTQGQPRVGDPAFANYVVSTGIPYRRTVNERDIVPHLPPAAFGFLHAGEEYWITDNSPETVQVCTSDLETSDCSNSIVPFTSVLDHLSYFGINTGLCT

As for `O=C(O)c1c(O)cccc1O` [2,6-DHBA, 2,6-dihydroxybenzoic acid], the “Bound [^3H] SA AtSB2L1” value on AtSB2L1 was determined as 36 dpm. On AtSB2L9, the “Bound [^3H] SA AtSB2L9” value stood at 1072 dpm. Besides, the “Bound [^3H] SA AtSB2L5” value on AtSB2L5 turned out to be 1742 dpm. Further, the “Bound [^3H] SA SABP2” value at SABP2 [1] is recorded as 924 dpm. In addition, the “Biological Activity of competitor” value in the experiment with PR genes is on record as “active”.

With `O=C(O)c1ccc(O)cc1` [4-HBA, 4-hydroxybenzoic acid], the “Bound [^3H] SA AtSB2L1” value at AtSB2L1 worked out at 65 dpm. The “Bound [^3H] SA AtSB2L9” value at AtSB2L9 is on record as 3620 dpm. In addition, the “Bound [^3H] SA AtSB2L5” value on AtSB2L5 was found to be 4757 dpm. For the same compound, at SABP2 [1], the “Bound [^3H] SA SABP2” value is 95634 dpm, the “inhibition of ^3H-SA binding by unlabeled competitor (in words)” value was “not” and the “binding to SABP2 (in words)” value is “only minimal binding”. Also, the “Biological Activity of competitor” value with PR genes is “inactive”.

Turning to `O=C(O)c1cc(Cl)ccc1O` [5-CSA, 5-chlorosalicylic acid], the “Bound [^3H] SA AtSB2L1” value at AtSB2L1 is reported as 38 dpm. Moreover, the “Bound [^3H] SA AtSB2L9” value on AtSB2L9 is 42 dpm. Besides, the “Bound [^3H] SA AtSB2L5” value at AtSB2L5 is reported as 64 dpm. Moreover, on SABP2 [1], the “Bound [^3H] SA SABP2” value stood at 260 dpm. Also, the “Biological Activity of competitor” value in the experiment with PR genes is listed as “active”.

With `c1ccc2snnc2c1` [BTH, benzothiadiazole], the “binding of BTH to SABP2 relative to SA” value on SABP2 [2] is listed as “about 15 fold”. For the same compound, the “binding to SABP2 (in words)” value at SABP2 [1] is recorded as “did not bind”. In the experiment with SABP2 expression, the “induction of SABP2 expression by treatment alone” value was “insufficient”. The “affinity of SABP2 for BTH relative to SA” value on SABP2 [3] (SABP2 isolated from plant extracts, fold greater) was “approximately 15 fold”.

Take `O=C(O)c1ccccc1O` [SA, salicylic acid]: the “Bound [^3H] SA AtSB2L1” value on AtSB2L1 turned out to be 42 dpm. The “Bound [^3H] SA AtSB2L9” value on AtSB2L9 is recorded as 36 dpm. At AtSB2L5, the “Bound [^3H] SA AtSB2L5” value is given as 121 dpm. On SABP2 [1], the “Bound [^3H] SA SABP2” value is 160 dpm and the “inhibition of ^3H-SA binding by unlabeled competitor (in words)” value is listed as “inhibited effectively”. Moreover, the “SA binding to SABP2 in Tris buffer (in words)” value at SABP2 [1] (50 mM bicine replaced with 50 mM Tris-HCl pH 8.0) is “does not bind”. Besides, on lipase from Mucor meihei, the “stimulation of lipase activity by SA” value is reported as “did not exhibit stimulation”. Moreover, in the experiment with PR genes, the “Biological Activity of competitor” value was “active”. For the same compound, the “induction of SABP2 expression by treatment alone” value in the experiment on SABP2 expression was “insufficient”. The “stimulation of SABP2 lipase activity by SA” value on SABP2 [4] (1 mM SA, 50 mM Bicine pH 8.0, substrates pNP palmitate, pNP myristate) is on record as 3–6 fold. Also, on SABP2 [4] (Tris-HCl pH 8.0 (50 mM) in place of Bicine), the “stimulation of SABP2 lipase activity by SA under conditions that prevent SA binding” value was “abolished”. Also, the “affinity of SABP2 for SA relative to that between SA and tobacco catalase” value with SABP2 [5] is listed as 100–150 fold. Further, the Kd at SABP2 [3] (SABP2 from tobacco, reversible binding, read-out: apparent Kd of SA binding to SABP2) is roughly 90 nM.
